Assay results: patent publication US20080076927A1, “Synthetic Methods and Intermediates for Stereoisomeric Compounds Useful for the Treatment of Gastrointestinal and Central Nervous System Disorders” (ARYx Therapeutics, Inc., priority 2005, published 2008)
Read-outs that look alike come from different tables or passages of the source.

How the values were obtained:
[1] = Metabolism in Fresh Human Blood; assay type: in vitro ADME; settings: fresh heparinized human blood, 37° C., read-out: Half-life
Protocol: Fresh blood was collected into heparinized tubes from 3 human donors and blood was stored on ice until incubation. Separate aliquots of blood from each donor were pipetted into 1.5 mL centrifuge tubes and the tubes were pre-incubated in a shaking water bath at 37° C. for 5 minutes. The reaction was initiated by the addition of 10 μL of the appropriate test compound stock to each tube (final concentration=100 μM). Incubations were quenched after 0, 5, 15, 30 and 60 minutes, by the addition of acetonitrile ([…]), centrifuged at 12,000 rpm for 2 minutes and the supernatant analyzed on an Agilent 1100 HPLC system. Separations were accomplished on a Keystone Intersil ODS2, 250×4.6 mm, […] column. The aqueous mobile phase consisted of 20 mM ammonium acetate buffer (pH 5.7) and the organic phase acetonitrile. A gradient was used: initial condition consisted of 20% acetonitrile for 1 minute. […] The system was then recycled to initial conditions over the course of 1 minute and held there for 4 minutes before the next injection. […] The results were expressed as amount of initial compound remaining and data subjected to kinetic analysis using WinNonLin. The half-lives for the individual compounds are given below in Table 6.

[2] = system: isolated, perfused guinea pig hearts
[3] = biological target: T1, 5-HT4 Receptor (Cavia porcellus, UniProt O70528); test: 5-HT4 receptor binding of the isomers of compound I, radiolabel displacement method; settings: read-out: binding constant Ki
[4] = biological target: 2D6 (Homo sapiens, UniProt P10635); settings: human
[5] = biological target: T2, human 5-HT4 receptor (Homo sapiens, UniProt Q13639); test: adenylyl cyclase stimulation in cells engineered to stably express human 5-HT4 receptor; assay type: cell-based
T2 construct: expressed in transfected cells
Text: ARYx performed in vitro assays based on adenylyl cyclase stimulation in cells engineered to stably express human 5-HT4 receptor. […] [table]

[6] = system: esterases in human plasma
[7] = biological target: T1, 5-HT4 Receptor; test: 5-HT4 Receptor Binding, Guinea Pig Striatum, [3H]GR113808; parameters: Guinea Pig Striatum; from tissue; host or cells: guinea pig striatum
[8] = biological target: 2C9 (Homo sapiens, UniProt P11712)
[9] = system: fasted, conscious dogs
[10] = biological target: CYP3A4 (Homo sapiens, UniProt P08684); settings: recombinant enzyme
[11] = biological target: T3, human IKr (HERG K+ channels) (Homo sapiens, UniProt Q12809); test: whole cell patch-clamp of IKr in HEK-293 cells expressing the HERG K+ channels; assay type: cell-based
T3 construct: expressed in transfected cells; host or cells: HEK-293
Protocol: The test system was mammalian HEK-293 cells expressing the HERG K+ channels, in which the potassium current was measured by whole cell patch-clamp technique.

[12] = assay type: in vitro ADME, human; settings: for dependence of metabolism on NADPH / CYP450: microsomes
Protocol: ATI-7505 (2 μM) was incubated with human microsomal protein (1 mg) in the presence or absence of NADPH regenerating system (cofactor).
Thus the major biotransformation pathway for ATI-7505 occurs independently of CYP450 enzymes.
The metabolism of these compounds was studied in pooled human microsomes in the presence and absence of the Cytochrome P-450 cofactor NADPH and both the disappearance of parent and the appearance of the corresponding acid metabolite, i.e., the corresponding compound-II isomer, monitored with time.
In this experiment, the amount of substrate (compounds III, IV, V, and VI) remaining in the reaction after 5, 60, and 90 minutes were evaluated by a tandem HPLC-MS method. This remaining amount was correlated with the appearance of the metabolite compound II.

[13] = system: fed dogs; test: gastric emptying in fed conscious dogs (time of MMC return); settings: IV infusion over 20 minutes before a solid meal
Protocol: The data shown are normalized to the averaged vehicle control times of MMC return values.
The objective of the experiments was to measure the time required for migrating motor contractions (MMCs) to return to baseline following ingestion of a solid meal. A drug-induced shortening of MMC return time indicated an early end of the digestive period due to accelerated gastric emptying. […] At the end of the drug infusion, the dogs were fed a meal. Gut contractions were recorded for a minimum of 60 minutes prior to the start of the drug infusion to establish the fasting state and to identify the onset of MMC in the duodenum, and at least 30 minutes after the return of MMC in the duodenum. Quantitative comparisons of the treatments were based on the time of MMC return as an index of gastric emptying following ingestion of a solid meal.

[14] = tested at 10, 100, 1,000, and 10,000 nM

T2 sequence (Q13639 whole entry): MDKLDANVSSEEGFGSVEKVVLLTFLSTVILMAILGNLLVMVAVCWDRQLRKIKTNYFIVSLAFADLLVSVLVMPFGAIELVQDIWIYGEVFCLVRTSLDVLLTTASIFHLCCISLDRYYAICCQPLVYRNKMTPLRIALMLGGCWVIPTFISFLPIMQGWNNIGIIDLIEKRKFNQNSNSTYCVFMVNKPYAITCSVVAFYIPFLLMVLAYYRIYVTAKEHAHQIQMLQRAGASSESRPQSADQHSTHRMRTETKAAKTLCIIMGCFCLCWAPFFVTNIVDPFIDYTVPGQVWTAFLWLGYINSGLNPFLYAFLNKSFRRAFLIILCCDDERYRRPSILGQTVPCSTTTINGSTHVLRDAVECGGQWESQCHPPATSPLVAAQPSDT
T1 sequence (O70528 whole entry): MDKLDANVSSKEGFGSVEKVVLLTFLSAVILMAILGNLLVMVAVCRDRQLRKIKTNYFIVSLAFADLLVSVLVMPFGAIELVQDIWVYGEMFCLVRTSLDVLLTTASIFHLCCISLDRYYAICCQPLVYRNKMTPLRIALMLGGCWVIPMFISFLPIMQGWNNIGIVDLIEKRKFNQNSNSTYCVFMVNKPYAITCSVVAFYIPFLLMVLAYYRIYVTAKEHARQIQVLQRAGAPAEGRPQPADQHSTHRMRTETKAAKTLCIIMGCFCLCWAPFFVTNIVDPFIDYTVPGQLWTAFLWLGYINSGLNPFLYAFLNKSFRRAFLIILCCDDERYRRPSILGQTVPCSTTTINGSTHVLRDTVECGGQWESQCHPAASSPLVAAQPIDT
T3 sequence (Q12809 whole entry): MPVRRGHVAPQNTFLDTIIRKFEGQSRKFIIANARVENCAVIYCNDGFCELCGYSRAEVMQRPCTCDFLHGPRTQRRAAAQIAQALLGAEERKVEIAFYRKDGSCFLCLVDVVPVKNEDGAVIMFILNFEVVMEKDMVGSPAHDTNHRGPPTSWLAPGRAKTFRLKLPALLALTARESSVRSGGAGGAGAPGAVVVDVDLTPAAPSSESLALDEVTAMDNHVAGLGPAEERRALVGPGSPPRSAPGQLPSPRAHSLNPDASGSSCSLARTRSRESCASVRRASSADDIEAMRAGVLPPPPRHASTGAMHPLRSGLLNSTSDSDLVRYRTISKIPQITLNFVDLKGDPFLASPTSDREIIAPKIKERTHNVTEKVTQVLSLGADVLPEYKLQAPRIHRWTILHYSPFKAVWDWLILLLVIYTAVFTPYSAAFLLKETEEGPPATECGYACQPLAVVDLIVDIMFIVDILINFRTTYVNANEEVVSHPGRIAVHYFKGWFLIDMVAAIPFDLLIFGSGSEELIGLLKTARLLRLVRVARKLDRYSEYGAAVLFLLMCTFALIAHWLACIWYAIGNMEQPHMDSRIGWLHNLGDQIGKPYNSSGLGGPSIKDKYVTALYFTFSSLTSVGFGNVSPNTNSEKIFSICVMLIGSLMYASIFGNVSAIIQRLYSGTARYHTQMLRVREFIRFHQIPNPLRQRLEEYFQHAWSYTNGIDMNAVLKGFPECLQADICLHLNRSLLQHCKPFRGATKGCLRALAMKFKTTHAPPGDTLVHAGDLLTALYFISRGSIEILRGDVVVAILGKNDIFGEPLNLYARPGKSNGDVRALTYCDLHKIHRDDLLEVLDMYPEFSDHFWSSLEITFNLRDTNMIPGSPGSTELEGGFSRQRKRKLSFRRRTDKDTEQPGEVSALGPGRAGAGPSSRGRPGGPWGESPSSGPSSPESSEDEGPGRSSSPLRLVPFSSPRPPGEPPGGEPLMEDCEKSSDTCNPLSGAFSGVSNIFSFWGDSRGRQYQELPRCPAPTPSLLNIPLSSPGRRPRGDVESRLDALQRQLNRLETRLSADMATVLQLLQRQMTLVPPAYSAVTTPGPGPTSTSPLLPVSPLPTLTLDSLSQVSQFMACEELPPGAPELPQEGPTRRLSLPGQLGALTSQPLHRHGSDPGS
Sequence of CYP3A4 (P08684 whole entry): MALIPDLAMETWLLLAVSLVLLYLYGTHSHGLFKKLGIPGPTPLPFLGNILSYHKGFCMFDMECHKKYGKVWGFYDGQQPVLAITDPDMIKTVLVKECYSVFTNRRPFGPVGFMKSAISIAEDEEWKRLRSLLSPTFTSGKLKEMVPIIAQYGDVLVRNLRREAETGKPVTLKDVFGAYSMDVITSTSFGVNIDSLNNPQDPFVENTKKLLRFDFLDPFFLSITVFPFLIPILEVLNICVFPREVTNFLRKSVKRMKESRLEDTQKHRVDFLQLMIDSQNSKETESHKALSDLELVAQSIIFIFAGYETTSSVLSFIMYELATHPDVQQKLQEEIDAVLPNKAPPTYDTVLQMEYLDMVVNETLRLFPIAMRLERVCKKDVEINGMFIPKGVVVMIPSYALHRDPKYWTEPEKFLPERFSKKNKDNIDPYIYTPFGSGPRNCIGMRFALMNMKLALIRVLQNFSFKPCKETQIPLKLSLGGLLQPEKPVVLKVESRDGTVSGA
Sequence of 2D6 (P10635 whole entry): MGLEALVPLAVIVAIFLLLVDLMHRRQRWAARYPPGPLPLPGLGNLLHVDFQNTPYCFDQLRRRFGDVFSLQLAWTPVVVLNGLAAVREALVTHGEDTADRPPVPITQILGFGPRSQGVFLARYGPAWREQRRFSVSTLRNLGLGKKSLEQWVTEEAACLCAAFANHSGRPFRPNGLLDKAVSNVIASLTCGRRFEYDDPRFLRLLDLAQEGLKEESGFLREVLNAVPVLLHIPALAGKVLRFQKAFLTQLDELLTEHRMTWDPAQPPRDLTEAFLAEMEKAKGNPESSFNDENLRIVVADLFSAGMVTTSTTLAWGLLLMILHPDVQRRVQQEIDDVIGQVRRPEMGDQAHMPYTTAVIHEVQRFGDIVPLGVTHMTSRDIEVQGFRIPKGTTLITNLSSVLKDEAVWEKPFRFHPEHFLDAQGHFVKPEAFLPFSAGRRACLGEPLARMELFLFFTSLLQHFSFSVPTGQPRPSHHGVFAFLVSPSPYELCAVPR
Sequence of 2C9 (P11712 whole entry): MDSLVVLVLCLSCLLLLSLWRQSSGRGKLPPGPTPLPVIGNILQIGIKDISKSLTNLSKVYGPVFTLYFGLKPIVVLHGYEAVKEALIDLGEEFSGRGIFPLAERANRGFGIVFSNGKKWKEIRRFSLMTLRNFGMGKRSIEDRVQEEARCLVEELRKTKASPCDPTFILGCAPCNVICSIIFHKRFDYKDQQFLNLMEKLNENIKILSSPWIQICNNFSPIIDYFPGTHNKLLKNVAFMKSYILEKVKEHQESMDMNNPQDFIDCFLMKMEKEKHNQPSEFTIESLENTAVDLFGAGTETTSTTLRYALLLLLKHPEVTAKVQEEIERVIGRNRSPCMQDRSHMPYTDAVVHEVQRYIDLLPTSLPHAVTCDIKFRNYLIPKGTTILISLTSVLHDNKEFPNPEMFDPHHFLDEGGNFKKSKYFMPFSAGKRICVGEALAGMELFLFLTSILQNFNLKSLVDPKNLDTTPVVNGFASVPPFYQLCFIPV

COc1cc(N)c(Cl)cc1C(=O)N[C@@H]1CCN(CCCCCC(=O)O[C@H]2CN3CCC2CC3)C[C@@H]1OC [ATI-7505, (R)-quinuclidin-3-yl 6-((3S,4R)-4-(4-amino-5-chloro-2-methoxybenzamido)-3-methoxypiperidin-1-yl)hexanoate]
half-life at 100 µM ([1]; Mean ± SD of 3 subjects, 100 μM): 8.59 ± 0.077 min
half-life at 100 µM ([1]; Subject 1, 100 μM): 8.47 min
half-life at 100 µM ([1]; Subject 2, 100 μM): 8.61 min
half-life at 100 µM ([1]; Subject 3, 100 μM): 8.58 min
modulation of cardiac electrophysiologic parameters [2]: very weak modulator of cardiac electrophysiologic parameters
No Observed Effect Level (NOEL), Combined Parameters ([2]; combined set of 6 cardiac parameters): 1,000 nM
No Observed Effect Level (NOEL), AH Interval [2, 14]: >10,000 nM
No Observed Effect Level (NOEL), HV Interval [2, 14]: 1,000 nM
No Observed Effect Level (NOEL), MAPD90 [2, 14]: 1,000 nM
No Observed Effect Level (NOEL), QRS Interval [2, 14]: >10,000 nM
No Observed Effect Level (NOEL), QT Interval [2, 14]: 1,000 nM
No Observed Effect Level (NOEL), SA Interval [2, 14]: >10,000 nM
Ki [3]: 1.4 nM
inhibitory activity against 2D6 [4]: Neither ATI-7505 nor its primary metabolite, ATI-7500 displayed significant inhibitory activity
5-HT4 receptor agonism [5]: highly potent 5-HT4 receptor agonist
EC50 ([5]; Potency EC50, concentration causing 50% maximal increase in adenylyl cyclase activity, estimated, unit nM printed in b338 only): 4 nM
EC50 ([5]; Potency pEC50, negative logarithm of the EC50): 3.55 nM
Efficacy % of 5HT (serotonin) ([5]; estimated Emax relative to 5-HT): 85%
EC50 fold lower than that of ATI-7500 ([5]; versus ATI-7500): approximately 100 fold
EC50 fold lower than that of cisapride ([5]; versus cisapride): approximately 10 fold
rate of metabolism by esterases in human plasma [6]: rapidly metabolized by esterases in human plasma
IC50 [7]: 8.3 nM
Ki [7]: 1.4 nM
nH, Hill coefficient ([7]; Guinea Pig Striatum): 0.7
affinity for the 5-HT4 receptor, fold greater than cisapride ([7]; versus cisapride): 18 fold
affinity for the 5-HT4 receptor, fold greater than the major metabolite, the carboxylic acid ([7]; versus major metabolite of ATI-7505): at least 360 fold
inhibitory activity against 2C9 [8]: Neither ATI-7505 nor its primary metabolite, ATI-7500 displayed significant inhibitory activity
antral and small bowel contractility, colonic motor activity ([9]; IV and PO): dose-dependent stimulation of antral and small bowel contractility with relatively little effect on colonic motor activity
prokinetic effects in the dog gut ([9]; IV and PO): caused prokinetic effects in the dog gut
MMC frequency in the proximal small intestine ([9]; PO, relative to the controls): increased MMC frequency in the proximal small intestine relative to the controls
migrating motor complex (MMC) characteristics ([9]; antrum, proximal, mid and distal small intestine): minimal effect
frequency of giant migrating contractions (GMC) ([9]; dog, in vivo): small but significant (p<0.05) increase
potency relative to cisapride on a mg/kg-basis ([9]; dog, in vivo): approximately twice as potent as cisapride
retrograde giant migrating contractions (RGC) ([9]; dog, in vivo): not associated with the development of retrograde giant migrating contractions (RGC)
tolerability, side effects ([9]; dog, in vivo): exhibited no side effects such as diarrhea, anorexia, or weight loss
inhibitory activity against CYP3A4 [10]: Neither ATI-7505 nor its primary metabolite, ATI-7500 displayed significant inhibitory activity
IC50 [11]: 24500 nM
% IKr control (10,000 nM) ([11]; 10,000 nM, normalized to % control tail IKr): 78.0%
hydrolysis by esterase in human microsomes [12]: rapidly hydrolyzed by esterase
biotransformation in pooled human microsomes ([12]; human, 2 µM): undergoes biotransformation to a single metabolite, ATI-7500
dependence of metabolism on NADPH / CYP450 ([12]; human): not dependent on CYP450
dependence of metabolism on NADPH / CYP450 [12]: not dependent on the presence of NADPH
time of MMC return as an index of gastric emptying [13]: significantly shortened the time of MMC return
